Data from PubChem BioAssay AID2060889 (Molecular Pharmacology Branch, DTP, NCI, 2025).

System: LG0567-F671-PDC complex spheroids viability
Assay: Anticancer human tumor LG0567-F671-PDC patient-derived lung adenocarcinoma cell line growth inhibition [RAS]
Conditions: for IC50: curve of first compound; for viability, T/C: stronger effect = lower value
Method in brief: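 Agents were tested in combination matrices in half-log decrements from a top concentration at or near clinical Cmax (10 microM if undetermined). Targets were multi-cell spheroids of tumour lines plus HUVEC and MSC stromal cells.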
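Also: spheroids exposed to compound for seven days before readout.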
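For IC50 in this document: luminescence signal used as a proxy for viable cells.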

In the case of O=C(c1ccc(F)c(F)c1Nc1ccc(I)cc1F)N1CC(O)([C@@H]2CCCCN2)C1 + CCn1c(-c2cc(N3CCN(C)CC3)cnc2C(C)OC)c2c3cc(ccc31)-c1csc(n1)CC(NC(=O)C1CC1C)C(=O)N1CCCC(N1)C(=O)OCC(C)(C)C2, the IC50 (second compound 0.000949 µM) is reported as < 3.16 nM, the IC50 (second compound 0.003 µM) is reported as < 3.16 nM and the IC50 (second compound 0.00949 µM) is reported as < 3.16 nM. The IC50 (second compound 0.03 µM) was < 3.16 nM, the IC50 (second compound 0.0949 µM) was < 3.16 nM and the IC50 (second compound 0.3 µM) was < 3.16 nM. The viability, T/C (second compound 0.000949 µM, first compound 0.00316 µM) was 21.6%, the viability, T/C (second compound 0.000949 µM, first compound 0.01 µM) was 13.6% and the viability, T/C (second compound 0.000949 µM, first compound 0.0316 µM) was 8.81%. It also gave a viability, T/C (second compound 0.000949 µM, first compound 0.1 µM) of 6.2%, a viability, T/C (second compound 0.000949 µM, first compound 0.316 µM) of 1.53% and a viability, T/C (second compound 0.000949 µM, first compound 1 µM) of 0.54%. The viability, T/C (second compound 0.003 µM, first compound 0.00316 µM) was 8.59%, the viability, T/C (second compound 0.003 µM, first compound 0.01 µM) was 6.83% and the viability, T/C (second compound 0.003 µM, first compound 0.0316 µM) was 4.65%. For the same molecule, the viability, T/C (second compound 0.003 µM, first compound 0.1 µM) was 2.36%, the viability, T/C (second compound 0.003 µM, first compound 0.316 µM) was 1.05% and the viability, T/C (second compound 0.003 µM, first compound 1 µM) was 0.48%. For the same molecule, the viability, T/C (second compound 0.00949 µM, first compound 0.00316 µM) was 5.45%, the viability, T/C (second compound 0.00949 µM, first compound 0.01 µM) was 3.36% and the viability, T/C (second compound 0.00949 µM, first compound 0.0316 µM) was 2.12%. For the same molecule, the viability, T/C (second compound 0.00949 µM, first compound 0.1 µM) was 0.98%, the viability, T/C (second compound 0.00949 µM, first compound 0.316 µM) was 0.46% and the viability, T/C (second compound 0.00949 µM, first compound 1 µM) was 0.34%. It also gave a viability, T/C (second compound 0.03 µM, first compound 0.00316 µM) of 3.69%, a viability, T/C (second compound 0.03 µM, first compound 0.01 µM) of 1.98% and a viability, T/C (second compound 0.03 µM, first compound 0.0316 µM) of 1.07%. For the same molecule, the viability, T/C (second compound 0.03 µM, first compound 0.1 µM) was 0.6%, the viability, T/C (second compound 0.03 µM, first compound 0.316 µM) was 0.54% and the viability, T/C (second compound 0.03 µM, first compound 1 µM) was 0.95%. For the same molecule, the viability, T/C (second compound 0.0949 µM, first compound 0.00316 µM) was 1.82%, the viability, T/C (second compound 0.0949 µM, first compound 0.01 µM) was 1.19% and the viability, T/C (second compound 0.0949 µM, first compound 0.0316 µM) was 0.64%. It also gave a viability, T/C (second compound 0.0949 µM, first compound 0.1 µM) of 0.56%, a viability, T/C (second compound 0.0949 µM, first compound 0.316 µM) of 0.47% and a viability, T/C (second compound 0.0949 µM, first compound 1 µM) of 0.32%. The viability, T/C (second compound 0.3 µM, first compound 0.00316 µM) was 1.58%, the viability, T/C (second compound 0.3 µM, first compound 0.01 µM) was 1.13% and the viability, T/C (second compound 0.3 µM, first compound 0.0316 µM) was 0.59%. For the same molecule, the viability, T/C (second compound 0.3 µM, first compound 0.1 µM) was 0.43%, the viability, T/C (second compound 0.3 µM, first compound 0.316 µM) was 0.53% and the viability, T/C (second compound 0.3 µM, first compound 1 µM) was 0.43%.
With C=CC(=O)Nc1cc(Nc2nccc(-c3cn(C)c4ccccc34)n2)c(OC)cc1N(C)CCN(C)C + C#Cc1c(F)ccc2cc(O)cc(-c3ncc4c(N5CC6CCC(C5)N6)nc(OCC56CCCN5CC(F)C6)nc4c3F)c12 the IC50 (second compound 0.0316 µM) was 120 nM, the IC50 (second compound 0.1 µM) was 84.3 nM and the IC50 (second compound 0.316 µM) was 8.15 nM. For the same molecule, the IC50 (second compound 1 µM) was < 3.16 nM, the IC50 (second compound 3.16 µM) was < 3.16 nM and the IC50 (second compound 10 µM) was < 3.16 nM. For the same molecule, the viability, T/C (second compound 0.0316 µM, first compound 0.00316 µM) was 88.7%, the viability, T/C (second compound 0.0316 µM, first compound 0.01 µM) was 80.7% and the viability, T/C (second compound 0.0316 µM, first compound 0.0316 µM) was 67.4%. For the same molecule, the viability, T/C (second compound 0.0316 µM, first compound 0.1 µM) was 54.1%, the viability, T/C (second compound 0.0316 µM, first compound 0.316 µM) was 34.5% and the viability, T/C (second compound 0.0316 µM, first compound 1 µM) was 19.1%. It also gave a viability, T/C (second compound 0.1 µM, first compound 0.00316 µM) of 79.8%, a viability, T/C (second compound 0.1 µM, first compound 0.01 µM) of 74.8% and a viability, T/C (second compound 0.1 µM, first compound 0.0316 µM) of 66.8%. The viability, T/C (second compound 0.1 µM, first compound 0.1 µM) was 47.1%, the viability, T/C (second compound 0.1 µM, first compound 0.316 µM) was 27% and the viability, T/C (second compound 0.1 µM, first compound 1 µM) was 16.2%. It also gave a viability, T/C (second compound 0.316 µM, first compound 0.00316 µM) of 53.4%, a viability, T/C (second compound 0.316 µM, first compound 0.01 µM) of 49.3% and a viability, T/C (second compound 0.316 µM, first compound 0.0316 µM) of 42.8%. It also gave a viability, T/C (second compound 0.316 µM, first compound 0.1 µM) of 28.4%, a viability, T/C (second compound 0.316 µM, first compound 0.316 µM) of 22.1% and a viability, T/C (second compound 0.316 µM, first compound 1 µM) of 11.3%. For the same molecule, the viability, T/C (second compound 1 µM, first compound 0.00316 µM) was 38.1%, the viability, T/C (second compound 1 µM, first compound 0.01 µM) was 32.8% and the viability, T/C (second compound 1 µM, first compound 0.0316 µM) was 28.9%. For the same molecule, the viability, T/C (second compound 1 µM, first compound 0.1 µM) was 20.4%, the viability, T/C (second compound 1 µM, first compound 0.316 µM) was 11.9% and the viability, T/C (second compound 1 µM, first compound 1 µM) was 6.5%. The viability, T/C (second compound 3.16 µM, first compound 0.00316 µM) was 20.5%, the viability, T/C (second compound 3.16 µM, first compound 0.01 µM) was 17% and the viability, T/C (second compound 3.16 µM, first compound 0.0316 µM) was 16.2%. For the same molecule, the viability, T/C (second compound 3.16 µM, first compound 0.1 µM) was 12.2%, the viability, T/C (second compound 3.16 µM, first compound 0.316 µM) was 8.15% and the viability, T/C (second compound 3.16 µM, first compound 1 µM) was 4.09%. It also gave a viability, T/C (second compound 10 µM, first compound 0.00316 µM) of 13.5%, a viability, T/C (second compound 10 µM, first compound 0.01 µM) of 10.9% and a viability, T/C (second compound 10 µM, first compound 0.0316 µM) of 9.25%. It also gave a viability, T/C (second compound 10 µM, first compound 0.1 µM) of 6.54%, a viability, T/C (second compound 10 µM, first compound 0.316 µM) of 4.27% and a viability, T/C (second compound 10 µM, first compound 1 µM) of 2.83%.
For CCc1c2c(nc3ccc(O)cc13)-c1cc3c(c(=O)n1C2)COC(=O)[C@]3(O)CC + C=CC(=O)N1CCN(c2nc(OCC3CCCN3C)nc3c(F)c(-c4nc(N)cc(C)c4C(F)(F)F)c(Cl)cc23)C(C)C1, the IC50 (second compound 0.00316 µM) was < 0.949 nM, the IC50 (second compound 0.01 µM) was < 0.949 nM and the IC50 (second compound 0.0316 µM) was < 0.949 nM. The IC50 (second compound 0.1 µM) was < 0.949 nM, the IC50 (second compound 0.316 µM) was < 0.949 nM and the IC50 (second compound 1 µM) was < 0.949 nM. The viability, T/C (second compound 0.00316 µM, first compound 0.000949 µM) was 17.1%, the viability, T/C (second compound 0.00316 µM, first compound 0.003 µM) was 14.7% and the viability, T/C (second compound 0.00316 µM, first compound 0.00949 µM) was 15%. The viability, T/C (second compound 0.00316 µM, first compound 0.03 µM) was 12.2%, the viability, T/C (second compound 0.00316 µM, first compound 0.0949 µM) was 7.62% and the viability, T/C (second compound 0.00316 µM, first compound 0.3 µM) was 4.2%. The viability, T/C (second compound 0.01 µM, first compound 0.000949 µM) was 18%, the viability, T/C (second compound 0.01 µM, first compound 0.003 µM) was 13.9% and the viability, T/C (second compound 0.01 µM, first compound 0.00949 µM) was 12.2%. For the same molecule, the viability, T/C (second compound 0.01 µM, first compound 0.03 µM) was 10.3%, the viability, T/C (second compound 0.01 µM, first compound 0.0949 µM) was 6.26% and the viability, T/C (second compound 0.01 µM, first compound 0.3 µM) was 3.82%. The viability, T/C (second compound 0.0316 µM, first compound 0.000949 µM) was 14.9%, the viability, T/C (second compound 0.0316 µM, first compound 0.003 µM) was 11.9% and the viability, T/C (second compound 0.0316 µM, first compound 0.00949 µM) was 14%. The viability, T/C (second compound 0.0316 µM, first compound 0.03 µM) was 8.57%, the viability, T/C (second compound 0.0316 µM, first compound 0.0949 µM) was 6.15% and the viability, T/C (second compound 0.0316 µM, first compound 0.3 µM) was 3.69%. The viability, T/C (second compound 0.1 µM, first compound 0.000949 µM) was 13.6%, the viability, T/C (second compound 0.1 µM, first compound 0.003 µM) was 12.4% and the viability, T/C (second compound 0.1 µM, first compound 0.00949 µM) was 9.96%. The viability, T/C (second compound 0.1 µM, first compound 0.03 µM) was 9.55%, the viability, T/C (second compound 0.1 µM, first compound 0.0949 µM) was 6.17% and the viability, T/C (second compound 0.1 µM, first compound 0.3 µM) was 2.99%. It also gave a viability, T/C (second compound 0.316 µM, first compound 0.000949 µM) of 12.7%, a viability, T/C (second compound 0.316 µM, first compound 0.003 µM) of 12.2% and a viability, T/C (second compound 0.316 µM, first compound 0.00949 µM) of 11.6%. For the same molecule, the viability, T/C (second compound 0.316 µM, first compound 0.03 µM) was 9.06%, the viability, T/C (second compound 0.316 µM, first compound 0.0949 µM) was 6.73% and the viability, T/C (second compound 0.316 µM, first compound 0.3 µM) was 3.59%. The viability, T/C (second compound 1 µM, first compound 0.000949 µM) was 13.1%, the viability, T/C (second compound 1 µM, first compound 0.003 µM) was 13.5% and the viability, T/C (second compound 1 µM, first compound 0.00949 µM) was 12.9%. The viability, T/C (second compound 1 µM, first compound 0.03 µM) was 9.98%, the viability, T/C (second compound 1 µM, first compound 0.0949 µM) was 8.33% and the viability, T/C (second compound 1 µM, first compound 0.3 µM) was 4.38%.
